In US9365583B2, “Substituted pyrazoles and uses thereof” (Genentech, Inc., priority 2013, dated 2016):
pKi: −log10 of the molar value.

Each molecule was assayed against T1, N-terminally GST-tagged DLK (catalytic domain amino acid 1-520) (Homo sapiens, UniProt Q12852) (assay: DLK TR-FRET inhibition assay). Details: 5 nM GST-DLK, 40 nM HIS-MKK4 K131M substrate, 30 μM ATP, 60 minutes at ambient temperature.
T1 construct: N-terminally GST-tagged DLK (catalytic domain amino acid 1-520); purchased Carna Bioscience
T1 sequence (Q12852 1-520): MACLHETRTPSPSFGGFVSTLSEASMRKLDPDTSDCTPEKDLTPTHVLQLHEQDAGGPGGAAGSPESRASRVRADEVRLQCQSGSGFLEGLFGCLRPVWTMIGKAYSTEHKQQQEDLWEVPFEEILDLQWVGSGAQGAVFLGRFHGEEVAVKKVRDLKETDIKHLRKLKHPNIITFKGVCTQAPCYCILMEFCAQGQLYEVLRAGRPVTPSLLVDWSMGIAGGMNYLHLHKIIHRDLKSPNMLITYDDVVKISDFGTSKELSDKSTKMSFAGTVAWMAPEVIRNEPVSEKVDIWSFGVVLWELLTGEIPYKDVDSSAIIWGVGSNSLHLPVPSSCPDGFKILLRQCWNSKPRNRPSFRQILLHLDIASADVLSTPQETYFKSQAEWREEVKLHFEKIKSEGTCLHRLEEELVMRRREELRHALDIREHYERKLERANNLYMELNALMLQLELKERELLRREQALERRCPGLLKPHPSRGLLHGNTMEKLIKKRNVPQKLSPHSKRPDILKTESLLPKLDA
Format: biochemical
Procedure: DLK TR-FRET inhibition assay: DLK kinase reactions (20 μL) containing 5 nM N-terminally GST-tagged DLK (catalytic domain amino acid 1-520) (Carna Bioscience), 40 nM N-terminally HIS-tagged MKK4 K131M substrate, and 30 μM ATP in kinase reaction buffer (50 mM HEPES, pH 7.5, 0.01% Triton X-100, 0.01% Bovine γ-Globulins, 2 mM DTT, 10 mM MgCl2 and 1 mM EGTA), and testing compound 1:3 serial diluted starting at 20 uM were incubated at ambient temperature for 60 minutes in 384 well OptiPlate (Perkin Elmer). To quench kinase reactions and detect phosphorylated MKK4, 15 μL of TR-FRET antibody mixture containing 2 nM anti-phosphorylated MKK4 labeled with Europium cryptate (Cisbio) and 23 nM anti-HIS labeled with D2 (Cisbio) in detection buffer (25 mM Tris pH 7.5, 100 mM NaCl, 100 mM EDTA, 0.01% Tween-20, and 200 mM KF) was added to the reaction mixture. The detection mixture was incubated for 3 hours at ambient temperature and the TR-FRET was detected with an EnVision multilabel plate reader (Perkin-Elmer) using the LANCE/DELFIA Dual Enh label from Perkin-Elmer (excitation filter: UV2 (TRF) 320 and emission filters: APC 665 and Europium 615).
Work on `CC(C)n1nc(-c2cnc(N)c(OC(F)(F)F)c2)cc1[C@H]1[C@@H]2C[C@@H](N3CC(F)C3)C[C@@H]21` [compound 28, 5-(5-((1R,3s,5S,6r)-3-(3-fluoro-azetidin-1-yl)bicyclo[3.1.0]hexan-6-yl)-1-isopropyl-1H-pyrazol-3-yl)-3-(trifluoromethoxy) pyridin-2-amine] yielded a pKi of 8.60. With `CC(C)n1nc(-c2cnc(N)c(OC(F)(F)F)c2)cc1[C@H]1[C@@H]2C[C@H](N3CC(F)C3)C[C@@H]21` [compound 29, 5-(5-((1R,3r,5S,6r)-3-(3-fluoro-azetidin-1-yl)bicyclo[3.1.0]hexan-6-yl)-1-isopropyl-1H-pyrazol-3-yl)-3-(trifluoromethoxy) pyridin-2-amine] the pKi was 8.55. Molecule `CC(C)n1nc(-c2cnc(N)c(C(F)(F)F)c2)cc1[C@H]1[C@@H]2C[C@H](N3CCC3)C[C@@H]21` [compound 30, 5-(5-((1R,3r,5S,6r)-3-(azetidin-1-yl)bicyclo[3.1.0]hexan-6-yl)-1-isopropyl-1H-pyrazol-3-yl)-3-(trifluoromethyl)pyridin-2-amine] has a pKi of 8.44. `CC(C)n1nc(-c2cnc3cnn([C@H](C)c4ccccn4)c3c2)cc1[C@H]1[C@@H]2C[C@@H](N3CCOCC3)C[C@@H]21` [compound 31, 4-((1R,3S,5S,6r)-6-(1-isopropyl-3-(1-((R)-1-(pyridin-2-yl)ethyl)-1H-pyrazolo[4,3-b]pyridin-6-yl)-1H-pyrazol-5-yl)bicyclo[3.1.0]hexan-3-yl)morpholine] showed a pKi of 7.10. `CC(C)n1nc(-c2cnc3cnn([C@@H](C)c4ccccn4)c3c2)cc1[C@H]1[C@@H]2C[C@@H](N3CCOCC3)C[C@@H]21` [compound 32, 4-((1R,3R,5S,6r)-6-(1-isopropyl-3-(1-((S)-1-(pyridin-2-yl)ethyl)-1H-pyrazolo[4,3-b]pyridin-6-yl)-1H-pyrazol-5-yl)bicyclo[3.1.0]hexan-3-yl)morpholine] gave a pKi of 8.39. `CC(C)n1nc(-c2cnc3cnn([C@H](C)c4ccccn4)c3c2)cc1[C@H]1[C@@H]2C[C@H](N3CCOCC3)C[C@@H]21` [compound 33, 4-((1R3R,5S,6r)-6-(1-isopropyl-3-(1-((R)-1-(pyridin-2-yl)ethyl)-1H-pyrazolo[4,3-b]pyridin-6-yl)-1H-pyrazol-5-yl)bicyclo[3.10]hexan-3-yl)morpholine] gave a pKi of 6.91. With `CC(C)n1nc(-c2cnc3cnn([C@@H](C)c4ccccn4)c3c2)cc1[C@H]1[C@@H]2C[C@H](N3CCOCC3)C[C@@H]21` [compound 34, 4-((1R,3S,5S,6r)-6-(1-isopropyl-3-(1-((S)-1-(pyridin-2-yl)ethyl)-1H-pyrazolo[4,3-b]pyridin-6-yl)-1H-pyrazol-5-yl)bicyclo[3.1.0]hexan-3-yl)morpholine] the pKi was 8.38. Molecule `CC(C)n1nc(-c2cnc(N)c(C(F)(F)F)c2)cc1[C@H]1[C@@H]2C[C@H](N3CCCC3=O)C[C@@H]21` [compound 35, 1-((1R,3r,5S,6r)-6-(3-(6-amino-5-(trifluoromethyl)pyridin-3-yl)-1-isopropyl-1H-pyrazol-5-yl)bicyclo[3.1.0]hexan-3-yl)pyrrolidin-2-one] has a pKi of 8.52. Work on `CC(C)n1nc(-c2cnc(N)c(C(F)(F)F)c2)cc1[C@H]1[C@@H]2C[C@H](N3CC(F)C3)C[C@@H]21` [compound 36, 5-(5-((1R,3r,5S,6r)-3-(3-fluoro-azetidin-1-yl)bicyclo[3.1.0]hexan-6-yl)-1-isopropyl-1H-pyrazol-3-yl)-3-(trifluoromethyl)pyridin-2-amine] yielded a pKi of 8.82. `CC(C)n1nc(-c2cnc(N)c(C(F)(F)F)c2)cc1[C@H]1[C@@H]2C[C@@H](N3CC(F)C3)C[C@@H]21` [compound 37, 5-(5-((1R,3s,5S,6r)-3-(3-fluoro-azetidin-1-yl)bicyclo[3.1.0]hexan-6-yl)-1-isopropyl-1H-pyrazol-3-yl)-3-(trifluoromethyl)pyridin-2-amine] showed a pKi of 8.63. Molecule `COC1CN([C@@H]2C[C@@H]3[C@H](C2)[C@H]3c2cc(-c3cnc(N)c(OC(F)(F)F)c3)nn2C(C)C)C1` [compound 38, 5-(1-isopropyl-5-((1R,3s,5S,6r)-3-(3-methoxyazetidin-1-yl)bicyclo[3.1.0]hexan-6-yl)-1H-pyrazol-3-yl)-3-(trifluoromethoxy) pyridin-2-amine] has a pKi of 8.84. Work on `COC1CN([C@H]2C[C@@H]3[C@H](C2)[C@H]3c2cc(-c3cnc(N)c(OC(F)(F)F)c3)nn2C(C)C)C1` [compound 39, 5-(1-isopropyl-5-((1R,3r,5S,6r)-3-(3-methoxyazetidin-1-yl)bicyclo[3.1.0]hexan-6-yl)-1H-pyrazol-3-yl)-3-(trifluoromethoxy) pyridin-2-amine] yielded a pKi of 8.69. Work on `CC(C)n1nc(-c2cnc(N)c(OC(F)F)c2)cc1[C@H]1[C@@H]2C[C@@H](N3CC(F)(F)C3)C[C@@H]21` [compound 42, 5-(5-((1R,3s,5S,6r)-3-(3,3-difluoroazetidin-1-yl)bicyclo[3.1.0]hexan-6-yl)-1-isopropyl-1H-pyrazol-3-yl)-3-(difluoromethoxy) pyridin-2-amine] yielded a pKi of 8.34. In the case of `CC(C)n1nc(-c2cnc(N)c(OC(F)F)c2)cc1[C@H]1[C@@H]2C[C@H](N3CC(F)(F)C3)C[C@@H]21` [compound 43, 5-(5-((1R,3r,5S,6r)-3-(3,3-difluoro-azetidin-1-yl)bicyclo[3.1.0]hexan-6-yl)-1-isopropyl-1H-pyrazol-3-yl)-3-(difluoromethoxy) pyridin-2-amine], the pKi was 8.52. `CC(C)n1nc(-c2cnc(N)c(C(F)(F)F)c2)cc1[C@H]1[C@@H]2C[C@@H](N3CCCC3=O)C[C@@H]21` [compound 44, 1-((1R,3s,5S,6r)-6-(3-(6-amino-5-(trifluoromethyl)pyridin-3-yl)-1-isopropyl-1H-pyrazol-5-yl)bicyclo[3.1.0]hexan-3-yl)pyrrolidin-2-one] gave a pKi of 8.09. Work on `CC(C)n1nc(-c2cnc(N)c(C(F)(F)F)c2)cc1[C@H]1[C@@H]2C[C@H](N3CCOC[C@H]3C)C[C@@H]21` [compound 45, 5-(1-isopropyl-5-((1R,3r,5S,6R)-3-((R)-3-methylmorpholino)bicyclo[3.1.0]hexan-6-yl)-1H-pyrazol-3-yl)-3-(trifluoromethyl) pyridin-2-amine] yielded a pKi of 8.48. `CC(C)n1nc(-c2cnc(N)c(C(F)(F)F)c2)cc1[C@H]1[C@@H]2C[C@H](N3CCOC[C@H]3C)C[C@@H]21` [compound 46, 5-(1-isopropyl-5-((1R,3s,5S,6R)-3-((R)-3-methylmorpholino)bicyclo[3.1.0]hexan-6-yl)-1H-pyrazol-3-yl)-3-(trifluoromethyl) pyridin-2-amine] showed a pKi of 8.73. `CC(C)n1nc(-c2cnc(N)c(OC(F)(F)F)c2)cc1[C@H]1[C@@H]2C[C@H](N(C)C3COC3)C[C@@H]21` [compound 47, 5-(1-isopropyl-5-((1R,3r,5S,6r)-3-(methyl(oxetan-3-yl)amino)bicyclo[3.1.0]hexan-6-yl)-1H-pyrazol-3-yl)-3-(trifluoromethoxy) pyridin-2-amine] was tested, and the pKi was 8.39. Molecule `CC(C)n1nc(-c2cnc(N)c(OC(F)(F)F)c2)cc1[C@H]1[C@@H]2C[C@@H](N(C)C3COC3)C[C@@H]21` [compound 48, 5-(1-isopropyl-5-((1R,3s,5S,6r)-3-(methyl(oxetan-3-yl)amino)bicyclo[3.1,0]hexan-6-yl)-1H-pyrazol-3-yl)-3-(trifluoromethoxy) pyridin-2-amine] has a pKi of 8.51. `CC(C)n1nc(-c2cnc(N)c(C(F)(F)F)c2)cc1[C@H]1[C@@H]2C[C@H](N(C)C3COC3)C[C@@H]21` [compound 49, 5-(1-isopropyl-5-((1R,3r,5S,6r)-3-(methyl(oxetan-3-yl)amino)bicyclo[3.1.0]hexan-6-yl)-1H-pyrazol-3-yl)-3-(trifluoromethyl) pyridin-2-amine] gave a pKi of 8.38. For `CC(C)n1nc(-c2cnc(N)c(C(F)(F)F)c2)cc1[C@H]1[C@@H]2C[C@@H](N(C)C3COC3)C[C@@H]21` [compound 50, 5-(1-isopropyl-5-((1R,3s,5S,6r)-3-(methyl(oxetan-3-yl)amino)bicyclo[3.1.0]hexan-6-yl)-1H-pyrazol-3-yl)-3-(trifluoromethyl) pyridin-2-amine], the pKi was 8.55. Molecule `CC(C)n1nc(-c2cnc(N)c(C(F)(F)F)c2)cc1[C@H]1[C@@H]2C[C@@H](N3CC4(COC4)C3)C[C@@H]21` [compound 51, 5-(5-((1R,3s,5S,6r)-3-(2-oxa-6-azaspiro[3.3]heptan-6-yl)bicyclo [3.1.0]hexan-6-yl)-1-isopropyl-1H-pyrazol-3-yl)-3-(trifluoro-methyl)pyridin-2-amine] has a pKi of 8.45.
